Experiments:
Format in all cases: in vivo
Ryegrass [1] = assay: Pre-emergence herbicidal activity (Example 31); parameters: key: 0-3 scale: 0 = 0-25% damage, 3 = 75-99% kill, 3+ = 100% kill; conditions: after three weeks
Outline: (§1)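 Visual damage score at three weeks: 0 = 0–25% damage, 3 = 75–99% kill, 3+ = 100% kill. Soil boxes with seeds sown 2 cm deep were sprayed before emergence with water-diluted emulsifiable concentrate or suspension, then grown in a glasshouse alongside unsprayed controls.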

Ipomea [2] = assay: Pre-emergence herbicidal activity (Example 31); conditions: after three weeks
Outline: as §1

Japanese millet [3] = assay: Pre-emergence herbicidal activity (Example 31); conditions: after three weeks
Outline: as §1

Mustard [4] = assay: Pre-emergence herbicidal activity (Example 31); conditions: after three weeks
Outline: as §1

Sunflower [5] = assay: Pre-emergence herbicidal activity (Example 31); conditions: after three weeks
Outline: as §1

Ipomea [6] = assay: Post-emergence herbicidal activity (Example 32); conditions: 3 weeks after spraying
Outline: (§2)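 Visual damage rating, 0 to 3 (0 = 0–25% damage, 3 = 75–99% kill, 3+ = 100% kill), taken 3 weeks post-spray versus untreated boxes. Plants were sown 2 cm deep in seed boxes, glasshouse-grown and sub-irrigated. They were treated at 10–12.5 cm height with water-diluted formulations.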

Japanese millet [7] = assay: Post-emergence herbicidal activity (Example 32); conditions: 3 weeks after spraying
Outline: as §2

Mustard [8] = assay: Post-emergence herbicidal activity (Example 32); conditions: 3 weeks after spraying
Outline: as §2

Ryegrass [9] = assay: Post-emergence herbicidal activity (Example 32); conditions: 3 weeks after spraying
Outline: as §2

Sunflower [10] = assay: Post-emergence herbicidal activity (Example 32); conditions: 3 weeks after spraying
Outline: as §2

Maize [11] = assay: Pre-emergence herbicidal test, fibre trays (Example 33); parameters: key: 0 = 0-20% damage, 5 = complete kill, vs untreated control; conditions: after 21 days
Description: (§3) The compounds were formulated for test by mixing an appropriate amount with 5 ml of an emulsion prepared by diluting 160 ml of a solution containing 21.S g per litre of "Span" 80 and 78.2 g per litre of "Tween" 20 in methylcyclohexanone to 500 ml with water. "Span" 80 is a Trade Mark for a surface-active agent comprising sorbitan monolaurate. "Tween" 20 is a Trade Mark for a surface-active agent comprising a condensate of sorbitan monolaurate with 20 molar proportions of ethylene oxide. Each 5 ml emulsion containing a test compound was'then diluted to 40 ml with water and sprayed on to young pot plants (post-emergence test) of the species named in Table 5 below. Damage to test plants was assessed after 14 days on a scale of 0 to 5 where 0 is 0 to 20% damage and 5 is complete kill. In a test for pre-emergence herbicidal activity, seeds of the test plants were sown in a shallow slit formed in the surface of soil in fibre trays. The surface was then levelled and sprayed, and fresh soil then spread thinly over the sprayed surface. Assessment of herbicidal damage was carried out after 21 days using the same scale of 0 to 5 as the post-emergence test. In both cases the degree of herbicidal damage was assessed by comparison with untreated control plants. A dash (-) means that no experiment was carried out.

Rice [12] = assay: as above; parameters: key: 0 is 0 to 20% damage; 5 is complete kill; conditions: after 21 days
Description: as §3

Cotton = assay: as above; conditions: after 21 days
Description: as §3

Ipomea purpurea = assay: as above; conditions: after 21 days
Description: as §3

Rape = assay: as above; conditions: after 21 days
Description: as §3

Senecio vulgaris = assay: as above; conditions: after 21 days
Description: as §3

Soy bean = assay: as above; conditions: after 21 days
Description: as §3

Sugar beet = assay: as above; conditions: after 21 days
Description: as §3

Winter wheat = assay: as above; conditions: after 21 days
Description: as §3

Maize [13] = assay: Post-emergence herbicidal test, young pot plants (Example 33); parameters: key: 0 is 0 to 20% damage; 5 is complete kill; conditions: after 14 days
Description: as §3

Rice [14] = assay: as above; parameters: key: 0 is 0 to 20% damage; 5 is complete kill; conditions: after 14 days
Description: as §3

| Structure (SMILES) | damage to plants, Rg (Ryegrass [1]; 1 kg/ha) | damage to plants, Rg (Ryegrass [1]; 5 kg/ha) | damage to plants, Ip (Ipomea [2]; 1 kg/ha) | damage to plants, Ip (Ipomea [2]; 5 kg/ha) | damage to plants, Jm (Japanese millet [3]; 1 kg/ha) | damage to plants, Jm (Japanese millet [3]; 5 kg/ha) | damage to plants, Ms (Mustard [4]; 1 kg/ha) | damage to plants, Ms (Mustard [4]; 5 kg/ha) | damage to plants, Sf (Sunflower [5]; 1 kg/ha) | damage to plants, Sf (Sunflower [5]; 5 kg/ha) | damage to plants, Ip (Ipomea [6]; 1 kg/ha) | damage to plants, Ip (Ipomea [6]; 5 kg/ha) | damage to plants, Jm (Japanese millet [7]; 1 kg/ha) | damage to plants, Jm (Japanese millet [7]; 5 kg/ha) | damage to plants, Ms (Mustard [8]; 1 kg/ha) | damage to plants, Ms (Mustard [8]; 5 kg/ha) | damage to plants, Rg (Ryegrass [9]; 1 kg/ha) | damage to plants, Rg (Ryegrass [9]; 5 kg/ha) | damage to plants, Sf (Sunflower [10]; 1 kg/ha) | damage to plants, Sf (Sunflower [10]; 5 kg/ha) | further results |
| --- | --- | --- | --- | --- | --- | --- | --- | --- | --- | --- | --- | --- | --- | --- | --- | --- | --- | --- | --- | --- | --- |
| COC(=O)C(C)Oc1ccc(Nc2ccc(Cl)cc2[N+](=O)[O-])cc1 (stereo not shown) [Compound 28] | 3 (3 represents 75 to 99% kill) | 3+ (3+ represents 100% kill) | 0 (0 represents from 0 to 25% damage) | 0 (0 represents from 0 to 25% damage) | 3+ (3+ represents 100% kill) | 3+ (3+ represents 100% kill) | 0 (0 represents from 0 to 25% damage) | 0 (0 represents from 0 to 25% damage) | 0 (0 represents from 0 to 25% damage) | 0 (0 represents from 0 to 25% damage) | 0 (0 represents 0 to 25% damage) | 0 (0 represents 0 to 25% damage) | 3+ (3+ represents 100% kill) | 3+ (3+ represents 100% kill) | 0 (0 represents 0 to 25% damage) | 0 (0 represents 0 to 25% damage) | 3+ (3+ represents 100% kill) | 3+ (3+ represents 100% kill) | 0 (0 represents 0 to 25% damage) | 0 (0 represents 0 to 25% damage) | herbicidal damage, Mz (Maize [11]; 1.0 kg/ha): 0 (0 is 0 to 20% damage); herbicidal damage, Rc (Rice [12]; 1.0 kg/ha): 1; herbicidal damage, Ct (Cotton; 1.0 kg/ha): 0 (0 is 0 to 20% damage); herbicidal damage, Ip (Ipomea purpurea; 1.0 kg/ha): 0 (0 is 0 to 20% damage); herbicidal damage, Rp (Rape; 1.0 kg/ha): 0 (0 is 0 to 20% damage); herbicidal damage, Sn (Senecio vulgaris; 1.0 kg/ha): 0 (0 is 0 to 20% damage); herbicidal damage, Sy (Soy bean; 1.0 kg/ha): 0 (0 is 0 to 20% damage); herbicidal damage, Sb (Sugar beet; 1.0 kg/ha): 0 (0 is 0 to 20% damage); herbicidal damage, Ww (Winter wheat; 1.0 kg/ha): 2; damage to test plants, Mz (Maize [13]; 1.0 kg/ha): 5; damage to test plants, Rc (Rice [14]; 1.0 kg/ha): 4 |
| COC(=O)C(C)Oc1ccc(N(C)c2ccc(Cl)cc2[N+](=O)[O-])cc1 (stereo not shown) [Compound 27] | 1 | 3 (3 represents 75 to 99% kill) | 0 (0 represents from 0 to 25% damage) | 0 (0 represents from 0 to 25% damage) | 1 | 3 (3 represents 75 to 99% kill) | 0 (0 represents from 0 to 25% damage) | 0 (0 represents from 0 to 25% damage) | 0 (0 represents from 0 to 25% damage) | 0 (0 represents from 0 to 25% damage) | 0 (0 represents 0 to 25% damage) | 0 (0 represents 0 to 25% damage) | 3+ (3+ represents 100% kill) | 3+ (3+ represents 100% kill) | 0 (0 represents 0 to 25% damage) | 0 (0 represents 0 to 25% damage) | 3+ (3+ represents 100% kill) | 3+ (3+ represents 100% kill) | 0 (0 represents 0 to 25% damage) | 0 (0 represents 0 to 25% damage) | herbicidal damage, Mz (Maize [11]; 2.0 kg/ha): 1; herbicidal damage, Rc (Rice [12]; 2.0 kg/ha): 5; herbicidal damage, Ct (Cotton; 2.0 kg/ha): 0 (0 is 0 to 20% damage); herbicidal damage, Ip (Ipomea purpurea; 2.0 kg/ha): 0 (0 is 0 to 20% damage); herbicidal damage, Rp (Rape; 2.0 kg/ha): 0 (0 is 0 to 20% damage); herbicidal damage, Sn (Senecio vulgaris; 2.0 kg/ha): 1; herbicidal damage, Sy (Soy bean; 2.0 kg/ha): 0 (0 is 0 to 20% damage); herbicidal damage, Sb (Sugar beet; 2.0 kg/ha): 0 (0 is 0 to 20% damage); herbicidal damage, Ww (Winter wheat; 2.0 kg/ha): 1; damage to test plants, Mz (Maize [13]; 2.0 kg/ha): 5; damage to test plants, Rc (Rice [14]; 2.0 kg/ha): 4 |
| COC(=O)C(C)Oc1ccc(N(C)c2ccc(Br)cc2[N+](=O)[O-])cc1 (stereo not shown) [Compound 30] | 1 | 3+ (3+ represents 100% kill) | 0 (0 represents from 0 to 25% damage) | 0 (0 represents from 0 to 25% damage) | 1 | 3 (3 represents 75 to 99% kill) | 1 | 2 | 0 (0 represents from 0 to 25% damage) | 0 (0 represents from 0 to 25% damage) | 0 (0 represents 0 to 25% damage) | 0 (0 represents 0 to 25% damage) | 3+ (3+ represents 100% kill) | 3+ (3+ represents 100% kill) | 0 (0 represents 0 to 25% damage) | 0 (0 represents 0 to 25% damage) | 3+ (3+ represents 100% kill) | 3+ (3+ represents 100% kill) | 0 (0 represents 0 to 25% damage) | 0 (0 represents 0 to 25% damage) | herbicidal damage, Mz (Maize [11]; 2.0 kg/ha): 2; herbicidal damage, Rc (Rice [12]; 2.0 kg/ha): 5; herbicidal damage, Ct (Cotton; 2.0 kg/ha): 0 (0 is 0 to 20% damage); herbicidal damage, Ip (Ipomea purpurea; 2.0 kg/ha): 0 (0 is 0 to 20% damage); herbicidal damage, Rp (Rape; 2.0 kg/ha): 0 (0 is 0 to 20% damage); herbicidal damage, Sn (Senecio vulgaris; 2.0 kg/ha): 2; herbicidal damage, Sy (Soy bean; 2.0 kg/ha): 0 (0 is 0 to 20% damage); herbicidal damage, Sb (Sugar beet; 2.0 kg/ha): 0 (0 is 0 to 20% damage); herbicidal damage, Ww (Winter wheat; 2.0 kg/ha): 1; damage to test plants, Mz (Maize [13]; 2.0 kg/ha): 5; damage to test plants, Rc (Rice [14]; 2.0 kg/ha): 4 |
| COC(=O)C(C)Oc1ccc(N(C)c2ccc(Cl)cc2Cl)cc1 (stereo not shown) [Compound 1, Methyl 2-[4-(2,4-dichloro-N-methylanilino)phenoxy]-propionate] | 1 | 3 (3 represents 75 to 99% kill) | 0 (0 represents from 0 to 25% damage) | 0 (0 represents from 0 to 25% damage) | 0 (0 represents from 0 to 25% damage) | 0 (0 represents from 0 to 25% damage) | 0 (0 represents from 0 to 25% damage) | 0 (0 represents from 0 to 25% damage) | 0 (0 represents from 0 to 25% damage) | 0 (0 represents from 0 to 25% damage) | 0 (0 represents 0 to 25% damage) | 0 (0 represents 0 to 25% damage) | 3+ (3+ represents 100% kill) | 3+ (3+ represents 100% kill) | 0 (0 represents 0 to 25% damage) | 0 (0 represents 0 to 25% damage) | 3+ (3+ represents 100% kill) | 3+ (3+ represents 100% kill) | 0 (0 represents 0 to 25% damage) | 0 (0 represents 0 to 25% damage) | herbicidal damage, Mz (Maize [11]; 2.0 kg/ha): 0 (0 is 0 to 20% damage); herbicidal damage, Rc (Rice [12]; 2.0 kg/ha): 0 (0 is 0 to 20% damage); herbicidal damage, Ct (Cotton; 2.0 kg/ha): 0 (0 is 0 to 20% damage); herbicidal damage, Ip (Ipomea purpurea; 2.0 kg/ha): 0 (0 is 0 to 20% damage); herbicidal damage, Rp (Rape; 2.0 kg/ha): 2; herbicidal damage, Sn (Senecio vulgaris; 2.0 kg/ha): 0 (0 is 0 to 20% damage); herbicidal damage, Sy (Soy bean; 2.0 kg/ha): 2; herbicidal damage, Sb (Sugar beet; 2.0 kg/ha): 0 (0 is 0 to 20% damage); herbicidal damage, Ww (Winter wheat; 2.0 kg/ha): 0 (0 is 0 to 20% damage); damage to test plants, Mz (Maize [13]; 2.0 kg/ha): 5; damage to test plants, Rc (Rice [14]; 2.0 kg/ha): 0 (0 is 0 to 20% damage) |
